Where a name gives a salt, the structure may show the parent alone. Read-outs that look alike come from different tables or passages of the source.
Molecular target: hERG (Homo sapiens, UniProt Q12809)
Assay: cell-based

Sequence of hERG (Q12809 whole entry): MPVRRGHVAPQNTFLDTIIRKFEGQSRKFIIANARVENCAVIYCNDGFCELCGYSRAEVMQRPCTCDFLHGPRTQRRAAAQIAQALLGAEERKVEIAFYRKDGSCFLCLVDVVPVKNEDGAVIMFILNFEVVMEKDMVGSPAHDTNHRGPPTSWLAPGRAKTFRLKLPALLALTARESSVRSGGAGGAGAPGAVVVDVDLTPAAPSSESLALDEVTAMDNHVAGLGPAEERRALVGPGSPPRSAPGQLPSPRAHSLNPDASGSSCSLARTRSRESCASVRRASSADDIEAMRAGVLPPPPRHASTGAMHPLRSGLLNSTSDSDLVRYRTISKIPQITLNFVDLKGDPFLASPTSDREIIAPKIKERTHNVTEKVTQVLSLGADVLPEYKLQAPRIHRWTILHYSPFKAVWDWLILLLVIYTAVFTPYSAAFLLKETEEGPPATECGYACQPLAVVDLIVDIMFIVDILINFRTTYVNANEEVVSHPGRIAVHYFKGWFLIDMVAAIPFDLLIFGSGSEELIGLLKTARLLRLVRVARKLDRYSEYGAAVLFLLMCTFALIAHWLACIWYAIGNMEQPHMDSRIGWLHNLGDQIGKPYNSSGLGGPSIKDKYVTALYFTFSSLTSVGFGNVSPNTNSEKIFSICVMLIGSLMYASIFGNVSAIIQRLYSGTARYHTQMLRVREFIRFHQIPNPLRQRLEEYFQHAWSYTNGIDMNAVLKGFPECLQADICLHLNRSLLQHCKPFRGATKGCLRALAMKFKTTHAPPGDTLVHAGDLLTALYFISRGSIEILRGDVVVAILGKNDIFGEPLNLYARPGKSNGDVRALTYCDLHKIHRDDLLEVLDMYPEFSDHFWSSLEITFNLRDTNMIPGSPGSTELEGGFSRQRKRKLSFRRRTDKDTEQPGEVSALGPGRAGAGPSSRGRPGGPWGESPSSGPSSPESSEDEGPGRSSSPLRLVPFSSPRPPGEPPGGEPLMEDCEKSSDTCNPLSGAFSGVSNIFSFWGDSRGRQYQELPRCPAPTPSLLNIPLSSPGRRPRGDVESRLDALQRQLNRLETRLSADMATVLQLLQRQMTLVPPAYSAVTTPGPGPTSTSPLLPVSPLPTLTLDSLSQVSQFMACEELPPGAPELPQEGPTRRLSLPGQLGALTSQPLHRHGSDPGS

SMILES	IC50 ((-LOG10(IC50), µM)) [µM]	IC50 [µM]
CC(C)(C)NC(=O)[C@@H]1C[C@@H]2CCCC[C@@H]2CN1C[C@@H](O)[C@H](Cc1ccccc1)NC(=O)[C@H](CC(N)=O)NC(=O)c1ccc2ccccc2n1 [Saquinavir mesylate]	22.2	
CC(C)Cc1ccc(C(C)C(=O)OCc2ccccn2)cc1 (centres unmarked) [Ibuprofen piconol]	16.3	
O=C(OC1CCCCC1)c1ccccc1C(=O)OC1CCCCC1 [Dicyclohexyl phthalate]	23.1	
CCN1CCCC(OC(=O)C(c2ccccc2)c2ccccc2)C1 (centres unmarked) [Crapinon]	5.35	
COc1ccc(CN2CCN(C(c3ccc(F)cc3)c3ccc(F)cc3)CC2)c(OC)c1OC [Lomerizine dihydrochloride]	0.849	
Fc1ccc(C(c2ccc(F)cc2)N2CCNCC2)cc1 [1-(Bis(4-fluorophenyl)methyl)piperazine]	19.7	
CCN(C(=O)c1cc(C)cc(OC[C@H](C)Nc2ccncc2)c1)C(C)C [GW473178E methyl benzene sulphonic acid]	15.9	
CCN(CCC#N)c1ccc(N=Nc2c(Cl)cc([N+](=O)[O-])cc2Cl)cc1 [C.I. Disperse Orange 37]	40.4	
CCCCCCCCN[C@H](C)[C@@H](O)c1ccc(SC(C)C)cc1 [Suloctidil]	0.29	
COC(=O)C1=C(C)NC(C)=C(C(=O)O[C@@H]2CCCN(Cc3ccccc3)C2)[C@@H]1c1cccc([N+](=O)[O-])c1 (racemic) [rac Benidipine hydrochloride]	12.5	
CC(C)N1C(=O)N(c2ccccc2)CS/C1=N\C(C)(C)C [Buprofezin]	19.5	
CCCc1ccc(OCC(=O)N2CCN(C(=O)COc3ccc(CCC)cc3OC)CC2)c(OC)c1 [Simetride]	1.4	
COC(=O)[C@H]1[C@H]2C[C@@H]3c4[nH]c5cc(OC)ccc5c4CCN3C[C@H]2C[C@@H](OC(=O)COc2ccc(OC)cc2)[C@@H]1OC [Mefeserpine]	0.786	
O=c1[nH]c2ccccc2n1CCCN1CCN(C(c2ccccc2)c2ccccc2)CC1 [Oxatomide]	0.442	
CC(C)(C)C(=O)C=Cc1ccc(Cl)cc1 [1-(4-Chlorophenyl)-4,4-dimethylpent-1-en-3-one]	43.6	
Cc1ccc(O)c(-n2nc3ccccc3n2)c1 [2-(2H-Benzotriazol-2-yl)-4-methylphenol]	36	
CCc1cc(Cl)c(OC)c(C(=O)NC[C@@H]2CCCN2CC)c1O [Eticlopride hydrochloride]	7.56	
NCCNc1cccc2ccccc12 [N-(1-Naphthyl)ethylenediamine dihydrochloride]	40.2	
CCOC(=O)[C@@H](C)Oc1ccc(Oc2nc3ccc(Cl)cc3o2)cc1 [Fenoxaprop-P-ethyl]	26	
ClC1=C(Cl)[C@]2(Cl)[C@@H]3[C@@H]4C[C@@H]([C@H]5O[C@@H]45)[C@@H]3[C@@]1(Cl)C2(Cl)Cl [Dieldrin]	33.1	
CC[N+]1(CC)CCC(=C(c2ccccc2)c2ccccc2)C1C (centres unmarked) [Prifinium bromide]	20.5	
CCC(C)(NC(=O)c1cc(Cl)c(C)c(Cl)c1)C(=O)CCl (centres unmarked) [Zoxamide]	39.1	
C=CC(=O)OCC(CO)(COCC(COC(=O)C=C)(COC(=O)C=C)COC(=O)C=C)COC(=O)C=C [Dipentaerythritol pentaacrylate]	8.28	

SMILES	IC50 ((-LOG10(IC50), µM)) [µM]	IC50 [µM]
CC1(CN2CCC(n3c(=O)[nH]c4ccccc43)CC2)OCc2ccccc2-n2cccc21 (centres unmarked) [Zaldaride]	8.82	
CN(C)C(=S)SSC(=S)N(C)C [Bis(dimethylaminothiocarbonyl) disulfide]	22.1	
c1ccc(Nc2cccc3ccccc23)cc1 [N-Phenyl-1-naphthylamine]	33.4	
CC(=O)NC1(c2cccc(F)c2)CCN(CC[C@@]2(c3ccc(Cl)c(Cl)c3)CN(c3ccccc3)C(=O)CO2)CC1 [SAR102779]	9.08	
N#CC1(N=NC2(C#N)CCCCC2)CCCCC1 [1,1'-Diazene-1,2-diyldicyclohexanecarbonitrile]	43.6	
CCCCCCCCCCCCCN1CC(C)OC(C)C1 (centres unmarked) [Tridemorph]	16.4	
CN1CCN(C2=Nc3ccccc3Oc3ccc(Cl)cc32)CC1 [Loxapine succinate]	12	
CC(C)OC(=O)C(O)(c1ccc(Cl)cc1)c1ccc(Cl)cc1 [Chloropropylate]	22.7	
CN(C)CCOC(c1ccccc1)c1ccc(Br)cc1 (centres unmarked) [Bromodiphenhydramine]	4.09	
CCCCNc1ccc(C(=O)OCCN(CC)CC)cc1 [Depolipon]	19	
CCN(CC)CCNc1ccc(CO)c2sc3ccccc3c(=O)c12 [Hycanthone]	10.7	
COc1cc2c(cc1OC)-c1c/c(=N\c3c(C)cc(C)cc3C)n(C)c(=O)n1CC2 [Trequinsin hydrochloride]	14	
c1ccc2c(c1)Oc1ccccc1S2 [Phenoxathiin]	24.5	
CN1CCCC(CC2c3ccccc3Sc3ccccc32)C1 (centres unmarked) [Metixene hydrochloride]	4.77	
COC(=O)[C@@H]1[C@H]2C[C@H]3c4[nH]c5ccccc5c4CCN3C[C@@H]2CC[C@@H]1O [Yohimbine]	23.9	
CCN(CC)CCOC(=O)C(c1ccccc1)c1ccccc1 [Adiphenine hydrochloride]	4.77	
CN1CCC(N(Cc2ccccc2)c2ccccc2)CC1 [Bamipine]	3.94	
CCN(CC)CCN1C(=O)CN=C(c2ccccc2F)c2cc(Cl)ccc21 [Flurazepam]	3.79	
CCCCCCCCN(C)CCCCCCCC [N-Methyldioctylamine]	3.25	
CCCCCCCCCCCCCCCC[N+](C)(C)C [Hexadecyltrimethylammonium bromide]	20.1	
CCCCCCn1cc[n+](C)c1 [1-Hexyl-3-methylimidazolium tetrafluoroborate]	60.6	
CCCCCCCCCCCCCC[n+]1ccccc1 [Tetradecylpyridinium bromide]	5.49	
CCCCCCCCCCCCCCCCn1cc[n+](C)c1 [1-Hexadecyl-3-methylimidazolium tetrafluoroborate]	9.86	

SMILES	IC50 ((-LOG10(IC50), µM)) [µM]	IC50 [µM]
CN(C)c1ccc(C(=N)c2ccc(N(C)C)cc2)cc1 [Auramine hydrochloride]	44.8	
CC(=O)c1ccc2c(c1)N(CCCN(C)C)c1ccccc1S2 [Acetopromazine maleate]	15.1	
O=C1C=CC(=O)N1c1cccc(N2C(=O)C=CC2=O)c1 [N,N'-1,3-Phenylenedimaleimide]	49	
CCCN(CCC)c1c([N+](=O)[O-])cc(C(F)(F)F)c(N)c1[N+](=O)[O-] [Prodiamine]	37.3	
CN(Cc1cc(Br)cc(Br)c1N)C1CCCCC1 [Bromhexine hydrochloride]	12.5	
CNCCC(Oc1ccccc1OC)c1ccccc1 (centres unmarked) [Nisoxetine]	9.52	
CCOC(=O)COc1cc(-n2ncc(C(F)(F)F)c(C)c2=O)c(F)cc1Cl [Flufenpyr-ethyl]	30.9	
CCN(CC)CCCN(c1ccccc1)C1Cc2ccccc2C1 [Aprindine hydrochloride]	2.79	
Cc1ccc(-c2ccccc2)cc1 [4-Phenyltoluene]	49	
COc1c(C(C)(C)C)cc([N+](=O)[O-])c(C)c1[N+](=O)[O-] [Musk ambrette]	20.5	
C[C@@H]1CN(CCCn2c3ccccc3c3ccccc32)C[C@H](C)N1 [Rimcazole dihydrochloride]	7.86	
CCCCCCCCCCCC(=O)NCCCN(C)C [N-[3-(Dimethylamino)propyl]dodecanamide]	14.3	
CCCCCOc1ccccc1/C(=C\SC)n1ccnc1 [Neticonazole]	20.5	
O=[N+]([O-])C1(Br)COCOC1 [5-Bromo-5-nitro-1,3-dioxane]	51.9	
O[C@@H](COc1cccc2ncccc12)CN1CCN([C@@H]2c3ccccc3[C@@H]3[C@H](c4ccccc42)C3(F)F)CC1 [LY335979 trihydrochloride]		12
COC(=O)[C@H]1[C@H]2C[C@@H]3c4[nH]c5cc(OC)ccc5c4CCN3C[C@H]2C[C@@H](OC(=O)c2cc(OC)c(OC)c(OC)c2)[C@@H]1OC [Reserpine]	9.16	
BrC1CCC(Br)C(Br)CCC(Br)C(Br)CCC1Br (centres unmarked) [1,2,5,6,9,10-Hexabromocyclododecane]	19.2	
CC(CC1c2ccccc2CCc2ccccc21)CN(C)C (centres unmarked) [Butriptyline]	16.9	
O=C(c1ccc(F)cc1)C1CCN(CCn2c(=S)[nH]c3ccccc3c2=O)CC1 [Altanserin hydrochloride]	0.817	
COc1ccccc1N1CCN(CCCCNC(=O)c2ccc(-c3ccc(C(C)=O)cc3)cc2)CC1 [GR 103691]	3.01	
CCC(COC(=O)c1cc(OC)c(OC)c(OC)c1)(c1ccccc1)N(C)C (centres unmarked) [Trimebutine maleate]	16.9	
C=CCOC(Cn1ccnc1)c1ccc(Cl)cc1Cl (centres unmarked) [Imazalil sulfate]	21.3	

Source: paper PMC8869358, “High-Throughput Chemical Screening and Structure-Based Models to Predict hERG Inhibition” (Biology, 2022)
